# “Also recorded” adds a separate entry of the source.
# Molecular target: T1, oxidized PTP1B (Homo sapiens, UniProt P18031)
# T1 sequence (P18031 1-435): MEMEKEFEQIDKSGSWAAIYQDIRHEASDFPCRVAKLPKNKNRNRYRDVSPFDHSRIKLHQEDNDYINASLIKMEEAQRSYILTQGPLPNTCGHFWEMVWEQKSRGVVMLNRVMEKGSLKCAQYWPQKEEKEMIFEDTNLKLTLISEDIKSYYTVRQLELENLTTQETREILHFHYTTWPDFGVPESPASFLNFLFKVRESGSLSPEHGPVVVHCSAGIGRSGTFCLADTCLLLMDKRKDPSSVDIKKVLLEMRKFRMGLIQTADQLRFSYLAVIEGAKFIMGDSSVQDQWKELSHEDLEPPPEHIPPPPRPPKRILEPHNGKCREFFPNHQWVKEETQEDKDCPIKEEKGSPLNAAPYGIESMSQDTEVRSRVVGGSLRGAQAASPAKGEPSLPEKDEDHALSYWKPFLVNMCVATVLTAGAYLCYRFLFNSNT
# Assay: Adduct formation with oxidized PTP1B, mass spectroscopy analysis;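 further: detection of covalent adducts formed between each compound and oxidized PTP1B, assessed by mass spectroscopy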
# Format: binding
# Details: adduct seen by mass spectroscopy analysis
# Source text: In further embodiments of the method, a fragment of the target protein may be used instead of the entire target protein. Certain embodiments may be directed to the binding between the compound and the target protein in the samples which may form a covalent adduct between the compound and the target protein, and the quantity of covalent adducts may be measured and compared in the samples. Any suitable assay for measuring the quantity of binding, or quantity of covalent adducts, in the two samples may be used with this method. For example, binding between the compound and the target protein may be detected using mass spectroscopy, fluorescence assays, and/or chromatography techniques. The chromatography techniques may include, but are not limited to, high-performance liquid chromatography. Further, binding between the compound and target protein may be detected using a combination of assays, for example, a combination of liquid chromatography and mass spectroscopy. The method may also be carried out in live and intact cells to determine a compound's reactivity with oxidized forms of the target protein in live cells. In certain embodiments, the potency of the compound is determined based on the degree of reduction of the quantity of adducts formed in the first sample compared with the quantity of adducts formed in the control sample, in a proportion to the quantity of compound used. In further embodiments, the potency of the compound is determined by calculating a ratio of the number of adducts formed in the first sample compared to the number of adducts formed in the control sample. A ratio of one compound can be compared directly to a ratio for another compound.
# The degree of potency of the compound may be based on the degree of reduction of the quantity of adducts formed in a first sample compared with the quantity of adducts formed in the control sample in proportion to the quantity of compound used.
row,Compound,REACTIVITY WITH OXIDIZED PTP1B
1,O=C1CC(=O)C(c2ccccc2)C1 (stereo not drawn),No adduct
2,O=C1CC(=O)N(c2ccccc2)C1,Adduct
3,COc1ccc(-c2ccccc2)cc1N1CC(=O)CC1=O,Adduct
4,O=C1CC(=O)N(c2cc(-c3ccccc3)ccc2O)C1,Adduct
5,O=C1CC(=O)C(Cc2ccccc2)C1 (stereo not drawn),No adduct
6,O=C1CC(=O)N(Cc2ccccc2)C1,Adduct
7,COc1ccc(-c2ccccc2)cc1CN1CC(=O)CC1=O,Adduct
8,O=C1CC(=O)N(Cc2cc(-c3ccccc3)ccc2O)C1,Adduct
9,O=C1CC(c2ccccc2)S(=O)(=O)C1 (stereo not drawn),No adduct
10,O=C1CN(c2ccccc2)S(=O)(=O)C1,No adduct
11,O=C1CC(Cc2ccccc2)S(=O)(=O)C1 (stereo not drawn),No adduct
12,O=C1CN(Cc2ccccc2)S(=O)(=O)C1,No adduct
13,O=C1CC(=O)/C(=C\c2ccccc2)C1,No adduct
14,O=C1C/C(=C/c2ccccc2)S(=O)(=O)C1,No adduct
15,COc1ccc(-c2ccccc2)cc1N1CC(=O)CS1(=O)=O,No adduct
16,O=C1CC(=O)c2ccccc21,Adduct
17,O=C1CS(=O)(=O)c2ccccc21,Adduct
18,O=C1CS(=O)(=O)Cc2ccccc21,Adduct
19,CN1c2ccccc2C(=O)CS1(=O)=O,Adduct
20,O=C1CS(=O)(=O)N(Cc2ccccc2)c2ccccc21,No Adduct
21,O=C1CS(=O)(=O)c2ccccc2N1,No Adduct
22,CN1C(=O)CS(=O)(=O)c2ccccc21,No Adduct
23,O=C1CC(=O)c2ccccc2N1,No Adduct
24,CN1C(=O)CC(=O)c2ccccc21,No Adduct
25,O=C1CS(=O)(=O)Nc2ccccc21,No Adduct
26,O=C1CCN(c2ccccc2)C(=O)C1,Adduct
27,O=C1CCN(Cc2ccccc2)C(=O)C1,Adduct
28,"CC1(C)CC(=O)CC(=O)C1 [dimedone, reference compound]",not reactive enough to trap the sulfenic acid in PTP1B as an observable adduct; also recorded: no adduct
29,CC1(C)CC(=O)CC(=O)C1 [drawing 1],No adduct

# System: not listed separately
# Assay: Microsome stability, mouse liver microsomes
# Format: in vitro ADME
# Details: read-out: Microsome Stability Mouse t1/2
row,Compound,half-life [min]
1,CC(=O)CC(=O)Nc1ccc2ncnc(Nc3cccc(Br)c3)c2c1 [Compound 3a],4
2,"C=CC(=O)Nc1ccc2ncnc(Nc3cccc(Br)c3)c2c1 [PD168393, reference compound]",3

# System: not listed separately
# Assay: Plasma stability in mice (20 mg/kg IP)
# Format: in vivo
# Details: mouse, intraperitoneal, 1 h
# Experimental: Plasma stability of drug candidates may be essential for maintaining acceptable drug concentration and half-life in order to achieve desirable pharmacological effects. Compounds 1a to 5a were evaluated for plasma stability in mice with PD168393 as the reference. […] At a time point of 24 hours, Compounds 1a-5a and PD168393 were almost completely degraded.
row,Compound,concentration at 1 h [nM]
1,CC(=O)CC(=O)Nc1ccc2ncnc(Nc3cccc(Br)c3)c2c1 [Compound 3a],29100
2,"C=CC(=O)Nc1ccc2ncnc(Nc3cccc(Br)c3)c2c1 [PD168393, reference compound]",2000

# Same assay, conditions: mouse, intraperitoneal, 4 h
row,Compound,concentration at 4 h [nM]
1,CC(=O)CC(=O)Nc1ccc2ncnc(Nc3cccc(Br)c3)c2c1 [Compound 3a],1100
2,"C=CC(=O)Nc1ccc2ncnc(Nc3cccc(Br)c3)c2c1 [PD168393, reference compound]",40

# Same assay, conditions: mouse, intraperitoneal, 8 h
row,Compound,concentration at 8 h [nM]
1,CC(=O)CC(=O)Nc1ccc2ncnc(Nc3cccc(Br)c3)c2c1 [Compound 3a],100
2,"C=CC(=O)Nc1ccc2ncnc(Nc3cccc(Br)c3)c2c1 [PD168393, reference compound]",50

# Same assay, conditions: mouse, intraperitoneal, 24 h
row,Compound,concentration at 24 h [nM]
1,CC(=O)CC(=O)Nc1ccc2ncnc(Nc3cccc(Br)c3)c2c1 [Compound 3a],< 25
2,"C=CC(=O)Nc1ccc2ncnc(Nc3cccc(Br)c3)c2c1 [PD168393, reference compound]",< 5

# Molecular target: T2, PTP1B (Homo sapiens, UniProt P18031)
# T2 sequence (P18031 1-435): T1 sequence (P18031 1-435)
# Assay: PTP assay, 4-MUP fluorescence
# Format: biochemical
# Details: FIG. 20 fluorescence assay, percent activity
# Experimental: (§1) Cell labeling western blot assays were performed using WT PJ3H-PTP1B purified from E. coli that was cloned into a mammalian expression plasmid. Recombinant PTP1B was expressed and purified from BL21AI cells. Recombinant proteins were labeled with respective equivalences of hydrogen peroxide (PTP1B, 10 eq; Gpx3 & GAPDH, 1.5 eq) in the presence of the indicated concentrations of sulfenic acid probes for 1 hour at room temperature with constant rocking Excess probe was removed by size-exclusion chromatography. Probe modified proteins were functionalized with a biotin reporter tag through the bioorthogonal Huisgen [3+2] Cycloaddition (“click chemistry”) then analyzed by Western blot.
# The PTP assay included PTP that was prepared up to 100 nM in 32 mM HEPES, pH 7.2, 5 mM NaCl, 2.5 mM EDTA, 0.83% glycerol, 0.02% Triton X-100, and 0.002% Brij-35. The protein was dispensed to a black ckear-bottomed 96-well microplate followed by the addition of redox-based probes or DMSO and allowed to incubate for 15 minutes at 25° C. The assay was initiated with the addition of 4-methylumbelliferyl phosphate (4-MUP), and the formation of fluorescent product was measured with an excitation wavelength of 358 nm and emission wavelength of 449 nm.
row,Compound,IC50 [µM]
1,C#CCCCNC(=O)c1ccc(-c2ccc(NC(=O)C3CC(=O)CC(=O)C3)cc2)cc1 [Compound 3],~250

# System: not listed separately
# Assay: Dipeptide sulfenic acid model, reaction rate
# Details: not given
row,Compound,rate constant for reaction in the dipeptide model (pseudo first-order) [min⁻¹]
1,"CC1(C)CC(=O)CC(=O)C1 [dimedone, reference compound]",1

# Molecular target: GAPDH (Homo sapiens, UniProt P04406)
# Sequence (P04406 whole entry, species assumed): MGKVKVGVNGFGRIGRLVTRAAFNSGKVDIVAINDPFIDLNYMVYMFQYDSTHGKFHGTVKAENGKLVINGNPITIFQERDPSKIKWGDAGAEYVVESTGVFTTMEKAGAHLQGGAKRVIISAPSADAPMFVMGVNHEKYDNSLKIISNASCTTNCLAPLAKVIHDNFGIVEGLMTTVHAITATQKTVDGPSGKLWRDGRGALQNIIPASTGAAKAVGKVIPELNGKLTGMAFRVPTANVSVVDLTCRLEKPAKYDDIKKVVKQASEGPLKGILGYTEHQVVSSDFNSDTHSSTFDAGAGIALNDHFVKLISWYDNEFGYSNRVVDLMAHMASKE
# Assay: In vitro probe labeling of oxidized recombinant protein, click chemistry and Western blot
# Format: binding
# Details: H2O2 1.5 eq, probe 1 hour
# Experimental: as §1
row,Compound,preferential detection of control protein GAPDH
1,C#CCCCNC(=O)C1CC(=O)CC(=O)C1 [Compound 1],no preferential detection

# System: GPX3
# Assay: as above
# Format: binding
# Details: H2O2 1.5 eq, probe 1 hour
# Experimental: as §1
row,Compound,preferential detection of control protein GPX3
1,C#CCCCNC(=O)C1CC(=O)CC(=O)C1 [Compound 1],no preferential detection

# System: A431 and HeLa cells
# Assay: not given
# Details: compared to DAz-2, identical conditions; cited from earlier work
row,Compound,total signal and signal ratio of cell labeling
1,C#CCCCC1CCC(=O)CC1=O (stereo not drawn) [DYn-2],greater total signal and signal ratio compared to DAz-2

# System: not listed separately
# Assay: in vitro
# Details: human, microsomes
Compound,half-life [min],microsomal CLint [µL/min/mg]
CC(=O)CC(=O)Nc1ccc2ncnc(Nc3cccc(Br)c3)c2c1 [Compound 3a],17,39.7

# System: not listed separately
# Assay: Microsome stability, human liver microsomes
# Details: not given
Compound,half-life [min],microsomal CLint [µL/min/mg]
"C=CC(=O)Nc1ccc2ncnc(Nc3cccc(Br)c3)c2c1 [PD168393, reference compound]",10,72.4
